melting point | SMILES
174 to 175 °C | COc1ccccc1-c1sc2ccc(Cl)cc2c1-c1c(OC)c(C)nn(C)c1=O [Compound No. 2-102, 4-(5-chloro-2-(2-methoxyphenyl)benzo[b]thiophen-3-yl)-5-methoxy-2,6-dimethylpyridazin-3(2H)-one]
152 to 155 °C | COc1ccccc1-c1sc2ccc(SC(F)(F)F)cc2c1-c1c(OC)c(C)nn(C)c1=O [Compound No. 2-379, 5-methoxy-4-(2-(2-methoxyphenyl)-5-((trifluoromethyl)thio)benzo[b]thiophen-3-yl)-2,6-di methylpyridazin-3(2H)-one]
